In patent US12281304B2, “Compositions and methods for treating and preventing muscular disorders and dystrophies, steroid side effects, and inflammation” (Children's National Medical Center, priority 2018, dated 2025):

Tested on: miRNAs in diaphragm muscle of mdx mice
Assay: TaqMan low-density array (TLDA) miRNA profiling of diaphragm, discovery set (prophylactic mdx trial)
Type: in vivo, mouse
Excerpt: Archival muscle samples (diaphragm) from two separate preclinical studies were obtained, with each trial showing a significant benefit from both prednisolone and vamorolone drug treatments (23). Prednisolone was used because it is the active form of prednisone, the current DMD standard of care. The first, “discovery set” of diaphragm muscles was from a prophylactic trial design where 2-week old (postnatal day 15) mdx or wild type control mice received oral dosing for 6 weeks with vehicle (cherry syrup), prednisolone (5 mg/kg), or vamorolone (15 mg/kg) as previously reported (23). The second, “validation set” of diaphragm muscles was from an extended trial in older mice where mdx or wild type mice were subjected to treadmill running to unmask mild phenotypes. Mice in this validation set were treated with either vehicle, prednisolone (5 mg/kg) or vamorolone (45 mg/kg) for four months beginning at two months of age (23). At the endpoint of each trial, diaphragm muscles were harvested and frozen in liquid nitrogen-cooled isopentane.
We extracted total RNA from 5 diaphragm muscles per treatment group in the discovery set of samples from 8-week old mice. RNA was extracted using a modified TRIzol protocol with isopropanol precipitation at −20° C. overnight. This RNA was reverse transcribed to cDNA using a High Capacity cDNA Reverse Transcription Kit with RNase Inhibitor (ThermoFisher; Carlsbad, Calif.), with miRNA-specific Megaplex RT Primers, Rodent Pools Set version 3.0 (ThermoFisher; Carlsbad, Calif.). Levels of each of the miRNAs were profiled in the discovery set using TAQMAN Array Rodent MiRNA A+B Cards Set v3.0 (ThermoFisher; Carlsbad, Calif.).
In the discovery set experiments, levels of each miRNA were quantified in TaqMan low-density arrays using ThermoFisher Cloud software with the Relative Quantification Application (ThermoFisher; Carlsbad, Calif.) tool. Data was analyzed by ANOVA with post-hoc comparison of each group to the mdx vehicle-treated group. […] A P-value of P≤0.05 was set as the significance threshold, without adjustment for multiple comparisons. To reduce false-positive discovery in this setting, an evidence-based approach was used to identify efficacy associated miRNAs where 1) results from the multiple groups were cross-referenced, and 2) all candidate miRNAs identified in this discovery set were then assayed in a separate validation set of mice. For the validation set experiments, levels of each individual miRNA were assayed in samples from a second, independent preclinical trial in adult mdx mice. Data from individual TaqMan Assays was quantified using QuantStudio Real-Time PCR version 1.3 software (Applied Biosystems; Foster City, Calif.). The levels of all miRNAs were normalized to the geometric mean of multiple control genes (60, 70). Comparison of groups was made by ANOVA with Holm-Sidak post-hoc test comparing each group to mdx vehicle.
To visualize behavior of miRNAs within individual mice for each group, heat map images were generated. Heat maps were generated using Rq values of TLDA array data exported from the Relative Quantification Application of the ThermoFisher Cloud software (ThermoFisher; Carlsbad, Calif.) tool. Heat maps of miRNA expression were produced using Hierarchical Clustering Explorer Version 3.5 (at www.cs.umd.edu/hcil/multi-cluster/) produced by the Human Computer Interaction Laboratory (University of Maryland; College Park, Md.).
To examine miRNA expression TaqMan low density qPCR array cards were used to profile approximately 750 miRNAs within diaphragm muscle from a discovery set of mice. Samples for this experiment came from a trial that utilized a prophylactic approach (23). Briefly, mdx mice undergo a stage of peak severity characterized by widespread inflammation and necrosis from approximately 3-8 weeks of age, followed by a recovery stage where mice show milder phenotypes (25). […]

[1] = discovery set diaphragm muscle, mdx mice, Pred 5 mg/kg, Vam 15 mg/kg
[2] = mdx diaphragm, vs untreated mdx, Pred 5 mg/kg, Vam 15 mg/kg

## C[C@]12C=CC(=O)C=C1CC[C@@H]1[C@@H]2[C@@H](O)C[C@@]2(C)[C@H]1CC[C@]2(O)C(=O)CO [prednisolone]
[1]
  miRNA 142-3p % expression in comparison to mdx vehicle: 50 ± 13 %
  miRNA 142-5p % expression in comparison to mdx vehicle: 44 ± 11 %
  miRNA 146a % expression in comparison to mdx vehicle: 39 ± 6 %
  miRNA 301a % expression in comparison to mdx vehicle: 70 ± 18 %
  miRNA 324-3p % expression in comparison to mdx vehicle: 71 ± 14 %
  miRNA 455-3p % expression in comparison to mdx vehicle: 62 ± 18 %
  miRNA 455-5p % expression in comparison to mdx vehicle: 64 ± 30 %
  miRNA 497 % expression in comparison to mdx vehicle: 49 ± 11 %
  miRNA 652 % expression in comparison to mdx vehicle: 62 ± 14 %
Mdx diaphragm, 8-week-old mice, oral dosing 6 weeks, prednisolone 5 mg/kg, vamorolone 15 mg/kg, versus untreated mdx, P≤0.05
  number of miRNAs significantly changed in dystrophic muscle: 76
Mdx diaphragm, discovery set, prednisolone 5 mg/kg
  expression of 14q32 (mouse 12F1) cluster miRNAs miR-134, miR-370, miR-409, miR-433, miR-493, miR-543: specifically activated
Mdx diaphragm, discovery set, prednisolone 5 mg/kg, vamorolone 15 mg/kg, P≤0.05
  number of miRNAs significantly increased by treatment: 9
Mdx diaphragm, discovery set, versus mdx vehicle
  expression of the nine efficacy-associated miRNAs elevated in dystrophy: returned towards healthy wild type levels
[2]
  Rq hsa-let-7i#-002172: 0.714
  Rq hsa-miR-30e-3p-000422: 0.739
  Rq hsa-miR-22#-002301: 0.641
  Rq hsa-miR-140-3p-002234: 0.681
  Rq hsa-miR-143-000466: 1.096
  Rq hsa-miR-154#-000478: 1.585
  Rq hsa-miR-190b-002263: 0.547
  Rq hsa-miR-200c-000505: 0.486
  Rq hsa-miR-206-000510: 1.017
  Rq hsa-miR-213-000516: 0.622
  Rq hsa-miR-214#-002293: 0.82
  Rq hsa-miR-214-000517: 0.767
  Rq hsa-miR-376a#-001287: 0.978
  Rq hsa-miR-455-001280: 0.6
  Rq hsa-miR-744#-002325: 0.537
  Rq mmu-let-7e-002406: 0.66
  Rq mmu-let-7a-000377: 0.491
  Rq mmu-let-7b-000378: 0.655
  Rq mmu-let-7c-1#-002479: 1.427
  Rq mmu-let-7c-000379: 0.651
  Rq mmu-let-7i-002221: 0.775
  Rq mmu-let-7d#-001178: 0.556
  Rq mmu-let-7d-002283: 0.714
  Rq mmu-miR-1-002222: 0.868
  Rq mmu-miR-15a-000389: 0.635
  Rq mmu-miR-16-000391: 0.663
  Rq mmu-miR-18a-002422: 1.284
  Rq mmu-miR-19a-000395: 0.846
  Rq mmu-miR-20a#-002491: 0.771
  Rq mmu-miR-21#-002493: 0.707
  Rq mmu-miR-21-000397: 0.659
  Rq mmu-miR-23b-000400: 0.621
  Rq mmu-miR-25-000403: 0.75
  Rq mmu-miR-26a-000405: 0.7
  Rq mmu-miR-27b-000409: 0.796
  Rq mmu-miR-28-000411: 0.759
  Rq mmu-miR-30e-002223: 0.785
  Rq mmu-miR-30a-000417: 0.756
  Rq mmu-miR-30b-000602: 0.785
  Rq mmu-miR-30c-000419: 0.739
  Rq mmu-miR-31#-002495: 0.955
  Rq mmu-miR-31-000185: 1.028
  Rq mmu-miR-34a-000426: 0.712
  Rq mmu-miR-34b-3p-002618: 0.607
  Rq mmu-miR-34c#-002584: 0.623
  Rq mmu-miR-34c-000428: 0.655
  Rq mmu-miR-99b-000436: 0.783
  Rq mmu-miR-100-000437: 0.586
  Rq mmu-miR-103-000439: 0.679
  Rq mmu-miR-122-002245: 0.241
  Rq mmu-miR-125a-3p-002199: 0.666
  Rq mmu-miR-125b#-002508: 0.453
  Rq mmu-miR-125b-3p-002378: 0.561
  Rq mmu-miR-125b-5p-000449: 0.676
  Rq mmu-miR-126-3p-002228: 0.697
  Rq mmu-miR-126-5p-000451: 0.682
  Rq mmu-miR-127-000452: 1.382
  Rq mmu-miR-128a-002216: 0.871
  Rq mmu-miR-130a-000454: 0.758
  Rq mmu-miR-130b#-002460: 0.443
  Rq mmu-miR-130b-000456: 0.757
  Rq mmu-miR-133a-002246: 0.942
  Rq mmu-miR-134-001186: 1.922
  Rq mmu-miR-136-002511: 0.705
  Rq mmu-miR-138#-002554: 0.214
  Rq mmu-miR-140-001187: 0.775
  Rq mmu-miR-142-3p-000464: 0.485
  Rq mmu-miR-142-5p-002248: 0.438
  Rq mmu-miR-143-002249: 0.742
  Rq mmu-miR-145-002278: 0.694
  Rq mmu-miR-146a-000468: 0.397
  Rq mmu-miR-146b#-002453: 0.088
  Rq mmu-miR-146b-001097: 0.555
  Rq mmu-miR-148a-000470: 0.602
  Rq mmu-miR-148b-000471: 0.512
  Rq mmu-miR-150#-002570: 0.297
  Rq mmu-miR-150-000473: 0.516
  Rq mmu-miR-151-3p-001190: 0.877
  Rq mmu-miR-152-000475: 0.721
  Rq mmu-miR-154-000477: 0.606
  Rq mmu-miR-155-002571: 0.742
  Rq mmu-miR-181a-000480: 0.728
  Rq mmu-miR-181c-000482: 0.624
  Rq mmu-miR-185-002271: 0.818
  Rq mmu-miR-186-002285: 0.866
  Rq mmu-miR-191-002299: 0.771
  Rq mmu-miR-193#-002577: 0.799
  Rq mmu-miR-195-000494: 0.491
  Rq mmu-miR-199a-3p-002304: 0.844
  Rq mmu-miR-199b-001131: 0.771
  Rq mmu-miR-200c-002300: 0.508
  Rq mmu-miR-203-000507: 0.575
  Rq mmu-miR-204-000508: 0.722
  Rq mmu-miR-210-000512: 0.759
